Measured values taken from patent US5332820A, “Dibenzobicyclo(2.2.2) octane angiotensin II antagonists” (priority 1991, dated 1994).

Assays:
Renal Hypertensive Rats = test: Antihypertensive effects in renal hypertensive rats, intravenous activity; assay type: in vivo, rat; conditions: awake renal artery-ligated rats; i.v.; 10 mg/kg (footnote)
Method: This procedure increases blood pressure by increasing renin production with consequent elevation of AII levels. […] Arterial blood pressure is continuously measured directly through a carotid artery cannula and recorded using a pressure transducer and a polygraph. Blood pressure levels after treatment are compared to pretreatment levels to determine the antihypertensive effects of the compounds which were tested.

[1] = target: AII receptor (rat adrenal cortical microsomes); test: Angiotensin II receptor binding (ligand-receptor binding assay; displacement of 3H-AII or 125I-AII); conditions: 2 nM 3H-AII or 0.05 nM 125I-AII, 1 hour, room temperature
Method: The hormone angiotensin II (AII) produces numerous biological responses, e.g., vasoconstriction, through stimulation of its receptors on cell membranes. For the purpose of identifying compounds such as AII antagonists which are capable of interacting with the AII receptor, a ligand-receptor binding assay was utilized for the initial screen. The assay was carried out according to the method described by Glossmann, et al., J. Biol. Chem., 249, 825 (1974), but with some modifications. The reaction mixture contained rat adrenal cortical microsomes (source of AII receptor) in Tris buffer and 2 nM of ^3 H-AII or 0.05 nM ^125 I-AII with or without potential AII antagonist. This mixture was incubated for 1 hour at room temperature and the reaction was subsequently terminated by rapid filtration and rinsing through glass micro-fibre filter. Receptor-bound ^3 H-AII or ^125 I-AII trapped in filter was quantitated by scintillation counting. The inhibitory concentration (IC50) of potential AII antagonist which gives 50% displacement of the total specifically bound ^3 H-AII or ^125 I-AII is a measure of the affinity of such compound for the AII receptor.

[2] = test system: arterial pressure in mammals and man; conditions: cited from earlier work
[3] = test system: effects of AII on the blood pressure of pithed rats; conditions: cited from earlier work
[4] = test system: renal vasoconstrictor effect of indomethacin and meclofenamate; conditions: dogs; cited from earlier work
[5] = test system: renal vasoconstrictor effect of indomethacin; conditions: dogs with non-hypotensive hemorrhage; cited from earlier work

| Compound | Antihypertensive Effects in Renal Hypertensive Rats, Intravenous Activity (Renal Hypertensive Rats) | IC50 [1] | further results |
| --- | --- | --- | --- |
| CCCCc1nc(Cl)c(C=O)n1Cc1ccc2c(c1)C1c3ccccc3C2C(C(=O)O)C1C(=O)O (mixture of isomers) [Example 1, (±)-cis-2-[(2-n-butyl-4-chloro-5-formylimidazol-1-yl)methyl]-9,10-dihydro-9,10-ethanoanthracene-11,12-dicarboxylic acid, a mixture of endo and oxo isomers] | + (Significant decrease in blood pressure at 10 mg/kg or less) | 1.1 µM | – |
| CCCCc1nc(Cl)c(C=O)n1Cc1ccc2c(c1)C1c3ccccc3C2C(C(=O)O)C1C(=O)O (mixture of isomers) [Example 2A, (±)-trans-2-[(2-n-butyl-4-chloro-5-formylimidazol-1-yl)methyl]-9,10-dihydro-9,10-ethanoanthracene-11,12-dicarboxylic acids, both diastereomers] | + (Significant decrease in blood pressure at 10 mg/kg or less) | 0.22 µM | – |
| CCCCc1nc(Cl)c(C=O)n1Cc1ccc2c(c1)C1c3ccccc3C2C(C(=O)O)C1C(=O)O (mixture of isomers) [Example 2B, (±)-trans-2-[(2-n-butyl-4-chloro-5-formylimidazol-1-yl)methyl]-9,10-dihydro-9,10-ethanoanthracene-11,12-dicarboxylic acids, both diastereomers] | + (Significant decrease in blood pressure at 10 mg/kg or less) | 0.32 µM | – |
| CCCCc1nc(Cl)c(C=O)n1Cc1ccc2c(c1)C1c3ccccc3C2C(c2nnn[nH]2)C1c1nnn[nH]1 (mixture of isomers) [Example 3, (±)-trans-2-[(2-n-butyl-4-chloro-5-formylimidazol-1-yl)methyl]-9,10-dihydro-9,10-ethano-11,12-bis (1H-tetrazol-5-yl)anthracene, both diastereomers] | + (Significant decrease in blood pressure at 10 mg/kg or less) | 0.092 µM | – |
| CCCCc1nc(Sc2ccccc2)c(C=O)n1Cc1ccc2c(c1)C1c3ccccc3C2C(c2nnn[nH]2)C1c1nnn[nH]1 (mixture of isomers) [Example 4, (±)-trans-2-[(2-n-butyl-4-phenylthio-5-formylimidazol-l-yl)methyl]-9,10-dihydro-9,10-ethano-11,12-bis (1H-tetrazol-5-yl) anthracene: one diastereomer] | + (Significant decrease in blood pressure at 10 mg/kg or less) | 0.46 µM | – |
| CNCC(=O)N[C@@H](CCCN=C(N)N)C(=O)N[C@H](C(=O)N[C@@H](Cc1ccc(O)cc1)C(=O)N[C@H](C(=O)N[C@@H](Cc1cnc[nH]1)C(=O)N1CCC[C@H]1C(=O)N[C@@H](C)C(=O)O)C(C)C)C(C)C [Saralasin] | – | – | effect on arterial pressure when the (elevated) pressure is dependent on circulating AII ([2]; mammals and man, AII-dependent pressure): lower arterial pressure in mammals and man; oral effectiveness ([2]; oral doses): oral doses being ineffective; duration of action ([2]; parenteral administration): relatively short-lasting; effect when the pressure is not sustained by AII (agonistic character) ([2]; pressure not sustained by AII): generally elicits pressor effects; block of the effects of AII on blood pressure of pithed rats [3]: blocks the effects of AII on the blood pressure of pithed rats; inhibition of renal vasoconstrictor effect of indomethacin and meclofenamate [4]: inhibit the renal vasoconstrictor effect of indomethacin and meclofenamate in dogs |
| C[C@H](CS)C(=O)N1CCC[C@H]1C(=O)O [captopril] | – | – | reversal of renal vasoconstrictor effect of indomethacin [5]: reverse the renal vasoconstrictor effect of indomethacin in dogs |
